According to patent publication US7910750B2, “Artemisinin (qinghaosu) derivatives, their preparation methods and their use, and pharmaceutical compositions containing the same” (Shanghai Institute of Materia Medica, Chinese Academy of …, priority 2005, dated 2011):
In brackets after ≈: the same amount, converted by molar mass. Where two headings read alike, the source gives them in different places.

Columns and labels:
B lymphocyte = assay: Lymphocyte proliferation test, B lymphocyte proliferation response induced by LPS ([3H]-thymidine); assay type: cell-based, mouse; conditions: 48 hours
Method: 3. After incubated in 5% CO2 incubator at 37° C. for 48 hours, 0.5 μCi [^3H]-thymidine (25 μL/well) was added into each well 7-8 hours before the termination of the incubation. 4.

[1] = Lymphocytotoxicity test (MTT); assay type: cell-based, mouse; conditions: BALB/c, primary spleen cells (splenic mononuclear cells), mouse spleen cells
Method: (§1) A. Lymphocytotoxicity Test
(§2) 1. BALB/c mice were killed by cervical dislocation, and their spleens were removed aseptically. A single spleen cell suspension was prepared and cell debris and clumps were removed.
(§3) 2. 80 μL cell suspension, 40 μL testing sample, 40 μL medium containing 10% FBS were added into 96 well plate; for the control group, 80 μL medium was added the total volume was 160 μL, and blank control group was set.
(§4) 3. After incubated in 5% CO2 incubator at 37° C. for 48 hours, 16 μL MTT (5 mg/mL) reagent was added into each well 6-7 hours before the termination of the incubation.

T lymphocyte = assay: Lymphocyte proliferation test, T lymphocyte proliferation response induced by ConA ([3H]-thymidine); assay type: cell-based, mouse; conditions: 48 hours
Method: B. Lymphocyte Proliferation Test […] […] 3. After incubated in 5% CO2 incubator at 37° C. for 48 hours, 0.5 μCi [^3H]-thymidine (25 μL/well) was added into each well 7-8 hours before the termination of the incubation. 4.

[2] = system: BALB/c mouse spleen cells; assay: Lymphocytotoxicity test (MTT); assay type: cell-based; conditions: 48 hours
Method: as §1, §2, §3, §4

BALB/c mice [3] = conditions: administered in vivo, BALB/c mice immunized with sheep red blood cells
Method: F. Production of Anti Sheep Red Blood Cell Specific Antibody of Mouse B Cells
Fresh sheep red blood cells (SRBC) were washed 3 times with PBS (pH7.2), and diluted by 1:20;
Fresh serum of guinea pig was diluted by 1:10;
2×10^7/mL of mouse spleen cell suspension was prepared;
Each 1 mL of the above three solutions was mixed and incubated at 37° C. for 1.5 hours, then is centrifuged with 2500 rpm×15 min. OD value was measured at 520 nM.
BALB/c mice were sensitized 3 days after administration: the sheep red blood cells were washed 3 times with saline, and the SRBC pressed volume was diluted by a rate of 5%. Each mouse was intraperitoneally injected with 0.2 mL, and dissected to take its spleen 6 days after sensitization. And the production amount of the antibodies was measured.

[4] = system: BALB/c mouse spleen cells and C57BL/6 mouse spleen cells
Method: C. Mixed Lymphocyte Reaction (MLR)
1. C57BL/6 and BALB/c mice were killed by cervical dislocation, their spleens were removed aseptically, and a single spleen cell suspension was prepared. After the red blood cells were removed, the cell concentration was adjusted to 4×10^6/mL with RPMI-1640 medium containing 10% FBS.
2. The spleen cells of C57BL/6 mice were response cells, and the spleen cells of BALB/c mice (irradiated with Co60, 3000 rads) were stimulator cells, the two kinds of cells were mixed with equal volumes.
3. 100 μL mixed cell suspension, 100 μL test sample were added into a 96-well plate; for the control group, 100 μL medium containing 10% serum was added, and single culture controls of the two kinds of cells were set.
4. Incubated in 5% CO2 incubator at 37° C. for 3, 4 or 5 days. 25 μL ^3H dilution (i.e. […] [^3H]-thymidine) was added 1 day before the termination of the incubation.
5. The incubation was terminated, the plate was freezed in a −20° C. refrigerator.
6. The cells were harvested with a cell harvestor ([…]96®, TOMTEC) on a glass fiber film, the incorporation of [^3H]-thymidine in DNA was detected with a liquid scintillation counter (MicroBeta Trilux®, PerkinElmer), which reflected the state of cell proliferation.

SD rats = conditions: intraperitoneally injected
BALB/c mice [5] = conditions: ear swelling
Method: Each rear paw of BALB/c mice (female, 6-8 weeks old) was sensitized with 20 μL 0.5% DNFB (2,4-dinitrofluorobenzene) on day 0, and was reinforced next day (DNFB was dissolved in an oil agent [acetone:olive oil=4:1]);
Inside and outside of left ear of the mice were challenged with 10 μL 0.4% DNFB at day 7-9;
The test sample was administrated once 1 hour before challenge by i.p. injection or intragastric adminatration. After 12 hours, administered again;
24-48 hours after challenge, each index was measured.
Note: For BALB/c mice (female, 6-8 weeks old), the concentration of sensitizing agent was 0.7%, the concentration of challenging agent was 0.6%.

IL-2 = conditions: stimulator ConA, 24 hours
Method: (§5) D. Induction and Detection of Cytokine
(§6) 1. BALB/c mice were killed by cervical dislocation, their spleens were removed aseptically, and a single spleen cell suspension was prepared. After the red blood cells were removed, the cell concentration was adjusted to 5×10^6/mL with RPMI-1640 medium containing 10% FBS.
(§7) 2. 1 mL cell suspension, 0.5 mL test sample and 0.5 mL ConA (final concentration 5 μg/mL) or Sac (Staphylococcus aureus thallus containing staphylococcus protein A) (final concentration 0.01%) were added into […]; for the control group, 0.5 mL medium containing 10% FBS was added, the final volume was 2 mL.
(§8) 3. Incubated in 5% CO2 incubator at 37° C. for 24 or 48 hours, the supernatant was collected and freezed in −20° C. refrigerator, the cytokines was to be detected.
(§9) 4. Production of cytokines was detected with a double antibody sandwich enzyme linked immunosorbent assay (ELISA). TMB was used as substrate of the enzyme reaction, and the OD values was measured with a microplate reader at 450 nm. The production amount of cytokines of the samples was calculated according to the standard curve.

IL-6 = conditions: for production of cytokine IL-6: 24 hours
Method: as §5, §6, §7, §8, §9

TNF-α = conditions: stimulated with PMA; dose dependent
Method: as §5, §6, §7, §8, §9

IFN-γ = conditions: for production of cytokine IFN-γ: 24 hours
Method: as §5, §6, §7, §8, §9

IL-12 = conditions: for production of cytokine IL-12: 24 hours
Method: as §5, §6, §7, §8, §9

[6] = mouse spleen cells, read-out: Lymphocytotoxicity CC50
[7] = mouse spleen cells, ConA, read-out: Inhibiting activity of T lymphocyte proliferation response induced by ConA IC50
[8] = mouse spleen cells, LPS, read-out: Inhibiting activity of B lymphocyte proliferation response induced by LPS IC50
[9] = SM735 10−^5 Mol/L, stimulator LPS
[10] = SM735 10−^5 Mol/L, stimulator PMA + Ion
[11] = SM735 10−^6 Mol/L, stimulator LPS
[12] = SM735 10−^6 Mol/L, stimulator PMA + Ion
[13] = SM735 10−^7 Mol/L, stimulator LPS
[14] = SM735 10−^7 Mol/L, stimulator PMA + Ion

## C[C@@H]1CC[C@H]2[C@@H](C)C(=O)O[C@@H]3O[C@@]4(C)CC[C@@H]1[C@]32OO4 [artemisinine, artemisinin]
B lymphocyte; Lymphocyte, mouse spleen cells, LPS, read-out: Inhibiting activity of B lymphocyte proliferation response induced by LPS IC50
  IC50: 8960 nM
[1]
  CC50 at 48 h: 28300 nM
T lymphocyte; T-lymphocyte, mouse spleen cells, ConA, read-out: Inhibiting activity of T lymphocyte proliferation response induced by ConA IC50
  IC50: 4430 nM

## C[C@H]1[C@H](OC(=O)CCC(=O)O)O[C@@H]2O[C@@]3(C)CC[C@H]4[C@H](C)CC[C@@H]1[C@@]24OO3 [artesunate, reference compound]
[2]; [6]
  CC50: 86000 nM
T lymphocyte; [7]
  IC50: 3820 nM

## COC(=O)Cc1ccc(OC2OC3OC4(C)CCC5C(C)CCC(C2C)C35OO4)cc1 (stereo not drawn) [compound 1, methyl 4-(12β-artemisininoxy)phenyl acetate]
B lymphocyte; [8]
  IC50: 179 nM
[2]; [6]
  CC50: 8000 nM
T lymphocyte; [7]
  IC50: 713 nM

## CC1CCC2C(C)C(Oc3ccc(CC(=O)O)cc3)OC3OC4(C)CCC1C32OO4 (stereo not drawn) [compound 2, 4-(12β-artemisininoxy)phenyl acetic acid]
B lymphocyte; [8]
  IC50: 10200 nM
[2]; [6]
  CC50: 100000 nM
T lymphocyte; [7]
  IC50: 11800 nM

## CC1CCC2C(C)C(Oc3cccc(OC(CC(=O)O)C(=O)O)c3)OC3OC4(C)CCC1C32OO4 (stereo not drawn) [compound 3, 3-(12β-artemisininoxy)phenoxy succinic acid]
B lymphocyte
  IC50, B lymphocyte proliferation response induced by LPS: 0.12 µg/mL (≈ 0.244 µM)
B lymphocyte; mean ± standard error, read-out: IC50, proliferation of spleen cells induced by LPS
  IC50: 270 ± 20 nM
B lymphocyte; [8]
  IC50: 265 nM
[2]; BALB/c mouse spleen cells
  cytotoxicity CC50: 27 µg/mL
[2]; BALB/c mouse spleen cells, mean ± standard error, read-out: cytotoxicity CC50
  CC50: 53100 ± 7800 nM
[2]; [6]
  CC50: 52700 nM
BALB/c mice [3]
  antibody and complement production by mouse B cell (antibody forming cell): inhibited
[4]; 96 hours
  IC50, proliferation response caused by mixed lymphocyte reaction: 2.1 µg/mL (≈ 4.26 µM)
[4]; read-out: IC50, one way mixed lymphocyte reaction, co-cultured for 96 hours, no unit printed
  IC50: 860 ± 180 nM
SD rats
  effect in rat adjuvant-induced arthritis animal model: certain preventive and therapeutic effect
BALB/c mice [5]
  DTH reaction induced by DNFB: inhibited
IL-2; SM735 10−^5 Mol/L
  production of cytokine IL-2: 2053 ± 162 pg/mL
IL-2; SM735 10−^6 Mol/L
  production of cytokine IL-2: 2343 ± 154 pg/mL
IL-2; SM735 10−^7 Mol/L
  production of cytokine IL-2: 2250 ± 77 pg/mL
IL-6; [9]
  production of cytokine IL-6: 522 ± 1 pg/mL
IL-6; [10]
  production of cytokine IL-6: 1465 ± 35 pg/mL
IL-6; [11]
  production of cytokine IL-6: 792 ± 42 pg/mL
IL-6; [12]
  production of cytokine IL-6: 2663 ± 52 pg/mL
IL-6; [13]
  production of cytokine IL-6: 840 ± 10 pg/mL
IL-6; [14]
  production of cytokine IL-6: 2886 ± 26 pg/mL
IL-6; stimulated with PMA, dose dependent
  production of IL-6 (result in words): obviously inhibited
TNF-α
  production of TNF-α (result in words): obviously inhibited
IFN-γ; SM735 10−^5 Mol/L, stimulator ConA
  production of cytokine IFN-γ: 322 ± 18 pg/mL
IFN-γ; [9]
  production of cytokine IFN-γ: 103 ± 7 pg/mL
IFN-γ; [10]
  production of cytokine IFN-γ: 144 ± 21 pg/mL
IFN-γ; SM735 10−^6 Mol/L, stimulator ConA
  production of cytokine IFN-γ: 976 ± 18 pg/mL
IFN-γ; [11]
  production of cytokine IFN-γ: 172 ± 2 pg/mL
IFN-γ; [12]
  production of cytokine IFN-γ: 557 ± 31 pg/mL
IFN-γ; SM735 10−^7 Mol/L, stimulator ConA
  production of cytokine IFN-γ: 1219 ± 33 pg/mL
IFN-γ; [13]
  production of cytokine IFN-γ: 207 ± 13 pg/mL
IFN-γ; [14]
  production of cytokine IFN-γ: 768 ± 6 pg/mL
IFN-γ; activated lymphocytes
  production of IFN-γ (result in words): inhibited
IL-12; [9]
  production of cytokine IL-12: 292 ± 26 pg/mL
IL-12; [10]
  production of cytokine IL-12: 198 ± 35 pg/mL
IL-12; [11]
  production of cytokine IL-12: 565 ± 18 pg/mL
IL-12; [12]
  production of cytokine IL-12: 487 ± 37 pg/mL
IL-12; [13]
  production of cytokine IL-12: 592 ± 33 pg/mL
IL-12; [14]
  production of cytokine IL-12: 586 ± 52 pg/mL
IL-12; activated lymphocytes
  production of IL-12 (result in words): inhibited
T lymphocyte
  IC50, T lymphocyte proliferation response induced by ConA: 0.13 µg/mL (≈ 0.264 µM)
T lymphocyte; mean ± standard error, read-out: IC50, proliferation of spleen cells induced by ConA
  IC50: 330 ± 60 nM
T lymphocyte; [7]
  IC50: 327 nM

## CC1CCC2C(C)C(Oc3ccc(OCC(=O)OCCN(C)C)cc3)OC3OC4(C)CCC1C32OO4 (stereo not drawn) [compound 4, dimethylaminoethyl-[4-(12β-artemisininoxy)phenoxy] acetate]
B lymphocyte; [8]
  IC50: 49.6 nM
[2]; [6]
  CC50: 2080 nM
T lymphocyte; [7]
  IC50: 1960 nM

## CCOC(=O)CNC(=O)c1ccc(OC2OC3OC4(C)CCC5C(C)CCC(C2C)C35OO4)cc1 (stereo not drawn) [compound 5, ethyl-[4-(12β-artemisininoxy)benzoyl] aminoacetate]
B lymphocyte; [8]
  IC50: 160 nM
[2]; [6]
  CC50: 39000 nM
T lymphocyte; [7]
  IC50: 2530 nM

## COC(=O)C(C)c1ccc(OC2OC3OC4(C)CCC5C(C)CCC(C2C)C35OO4)cc1 (stereo not drawn) [compound 21, methyl 2-[4-(12β-artemisininoxy)phenyl] propionate]
B lymphocyte; [8]
  IC50: 160 nM
[2]; [6]
  CC50: 7800 nM
T lymphocyte; [7]
  IC50: 64 nM
